From patent US12275731B2, “Azaindole inhibitors of wild-type and mutant forms of LRRK2” (DANA-FARBER CANCER INSTITUTE, INC., priority 2018, dated 2025)

Key:
LRRK2 WT enzyme = target: T1, LRRK2 WT enzyme (Homo sapiens, UniProt Q5S007); assay: LRRK2 wild type kinase inhibition assay (ADP-Glo); format: biochemical; conditions: Table 2, class symbols; read-out: Enzyme activity against LRRK2 WT (IC50)
T1 construct: purchased Thermo Fisher Scientific PR8604B
Description: (§1) IC50 experiments were performed for inventive compounds. An exemplary kit to perform this assay includes the Adapta™ Screening Protocol and Assay Conditions by Invitrogen™ (Fisher Scientific™, Catalog No. PV5099).
(§2) All LRRK2 kinase inhibition assays were conducted by using Promega ADP-Glo™ Kinase assay systems (Catalog number; V4475). Inhibitors were tested with 12 concentrations over a 5-fold serial dilution series (50 μM, 10 μM, 2 μM, 400 nM, 80 nM, 16 nM, 3.2 nM, […]) and PF06447475 as positive control. For the LRRK2 wild type (WT) enzyme assay, each inhibitor was mixed with 0.2 μg/μL of substrate (LRRKtide, SignalChem, Richmond, BC, Canada), […] (Invitrogen™, Carlsbad, CA), 24 ng of LRRK2 WT enzyme (Thermo Fisher Scientific, PR8604B) in 384-well plate. For LRRK G2019S, each compound was mixed with 0.2 μg/μL of substrate, […], 16 ng of LRRK2 G2019S enzyme (SignalChem, L10-12GG). All samples were diluted with kinase reaction buffer (40 mmol/L TrisHCl, 10 mmol/L MgCl2, and 0.1 μg/μL BSA (bovine serum albumin)). After 2 hours at 25° C., ADP-Glo™ (Promega, Madison, WI) reagent was added and the samples were incubated at rt for 40 min. Finally, Kinase Detection Reagent was added and the resulting mixtures were allowed to react at rt for 10 min. Luminescence signals were detected using Synergy™ Neo2 microplate reader (Bio-Tek). Compound inhibition curve was fitted using Graphpad Prism 8.0 software.

FAK = FAK (Homo sapiens, UniProt Q05397); assay: KinomeScan profiling; format: binding; conditions: read-out: % control
Summary of the method: (§3)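 1 μM cpd in DMSO; 468-kinase panel; readout RLU. % ctrl = (cpd − pos ctrl)/(neg ctrl − pos ctrl) ×100. Pos ctrl = 0%, DMSO = 100%. Hit cut-off <35%.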

PHKG2 = target: T2, PHKG2 (Homo sapiens, UniProt P15735); assay: KinomeScan profiling; format: binding; conditions: PHKG2, 1 μM; read-out: % control
T2 sequence (P15735 1-406): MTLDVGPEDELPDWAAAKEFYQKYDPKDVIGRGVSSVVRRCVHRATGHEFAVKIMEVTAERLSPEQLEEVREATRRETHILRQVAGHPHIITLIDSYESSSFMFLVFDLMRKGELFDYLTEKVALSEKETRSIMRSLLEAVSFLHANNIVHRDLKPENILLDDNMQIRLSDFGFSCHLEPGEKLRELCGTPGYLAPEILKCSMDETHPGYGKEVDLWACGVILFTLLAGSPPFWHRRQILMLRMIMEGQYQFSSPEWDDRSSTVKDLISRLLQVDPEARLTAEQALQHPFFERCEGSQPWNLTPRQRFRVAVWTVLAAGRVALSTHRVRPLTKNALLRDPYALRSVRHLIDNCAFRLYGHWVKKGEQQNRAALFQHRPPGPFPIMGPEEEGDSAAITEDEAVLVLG
Summary of the method: as §3

YES = YES (Homo sapiens, UniProt P07947); assay: KinomeScan profiling; format: binding; conditions: read-out: % control
Summary of the method: as §3

SIK2 = target: T3, SIK2 (Homo sapiens, UniProt Q9H0K1); assay: KinomeScan profiling; format: binding; conditions: SIK2, 1 μM; read-out: % control
T3 construct: purchased KinomeScan® (panel service)
Summary of the method: as §3

BRSK1 = target: T4, BRSK1 (Homo sapiens, UniProt Q8TDC3); assay: KinomeScan profiling; format: binding; conditions: BRSK1, 1 μM; read-out: % control
T4 sequence (Q8TDC3 1-778): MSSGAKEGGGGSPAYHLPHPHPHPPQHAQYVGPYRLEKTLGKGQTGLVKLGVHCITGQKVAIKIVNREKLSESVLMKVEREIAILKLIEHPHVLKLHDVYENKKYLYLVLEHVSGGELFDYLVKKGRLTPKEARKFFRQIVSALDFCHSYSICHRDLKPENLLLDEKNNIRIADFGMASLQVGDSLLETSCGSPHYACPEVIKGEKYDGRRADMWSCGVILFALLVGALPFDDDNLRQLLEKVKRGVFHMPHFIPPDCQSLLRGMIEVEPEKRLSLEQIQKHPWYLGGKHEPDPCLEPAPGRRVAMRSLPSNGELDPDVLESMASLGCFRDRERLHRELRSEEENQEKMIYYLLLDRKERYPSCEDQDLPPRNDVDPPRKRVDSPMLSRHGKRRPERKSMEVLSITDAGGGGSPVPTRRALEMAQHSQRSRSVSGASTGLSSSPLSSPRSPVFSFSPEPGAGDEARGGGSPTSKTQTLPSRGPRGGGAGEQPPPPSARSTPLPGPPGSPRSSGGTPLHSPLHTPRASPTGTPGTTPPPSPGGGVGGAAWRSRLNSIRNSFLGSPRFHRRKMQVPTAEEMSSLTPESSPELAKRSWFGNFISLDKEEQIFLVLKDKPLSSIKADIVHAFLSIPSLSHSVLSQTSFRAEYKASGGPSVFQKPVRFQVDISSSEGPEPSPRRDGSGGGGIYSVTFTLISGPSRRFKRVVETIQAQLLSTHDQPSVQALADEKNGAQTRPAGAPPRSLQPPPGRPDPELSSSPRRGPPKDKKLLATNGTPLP
Summary of the method: as §3

LRRK2(G2019S) = LRRK2(G2019S) (Homo sapiens, UniProt Q5S007, G2019S); assay: LRRK2 G2019S kinase inhibition assay (ADP-Glo); format: biochemical; set-up: purchased SignalChem L10-12GG; conditions: Table 2, class symbols; read-out: Enzyme activity against LRRK2 G2019S (IC50)
Description: as §1, §2

FLT3(ITD) = assay: KinomeScan profiling; format: binding; conditions: 1 μM
Summary of the method: as §3

FLT3(ITD, D835V) = assay: KinomeScan profiling; format: binding; conditions: 1 μM
Summary of the method: as §3

FLT3(ITD, F691L) = assay: KinomeScan profiling; format: binding; conditions: 1 μM
Summary of the method: as §3

T3 sequence (Q9H0K1 whole entry): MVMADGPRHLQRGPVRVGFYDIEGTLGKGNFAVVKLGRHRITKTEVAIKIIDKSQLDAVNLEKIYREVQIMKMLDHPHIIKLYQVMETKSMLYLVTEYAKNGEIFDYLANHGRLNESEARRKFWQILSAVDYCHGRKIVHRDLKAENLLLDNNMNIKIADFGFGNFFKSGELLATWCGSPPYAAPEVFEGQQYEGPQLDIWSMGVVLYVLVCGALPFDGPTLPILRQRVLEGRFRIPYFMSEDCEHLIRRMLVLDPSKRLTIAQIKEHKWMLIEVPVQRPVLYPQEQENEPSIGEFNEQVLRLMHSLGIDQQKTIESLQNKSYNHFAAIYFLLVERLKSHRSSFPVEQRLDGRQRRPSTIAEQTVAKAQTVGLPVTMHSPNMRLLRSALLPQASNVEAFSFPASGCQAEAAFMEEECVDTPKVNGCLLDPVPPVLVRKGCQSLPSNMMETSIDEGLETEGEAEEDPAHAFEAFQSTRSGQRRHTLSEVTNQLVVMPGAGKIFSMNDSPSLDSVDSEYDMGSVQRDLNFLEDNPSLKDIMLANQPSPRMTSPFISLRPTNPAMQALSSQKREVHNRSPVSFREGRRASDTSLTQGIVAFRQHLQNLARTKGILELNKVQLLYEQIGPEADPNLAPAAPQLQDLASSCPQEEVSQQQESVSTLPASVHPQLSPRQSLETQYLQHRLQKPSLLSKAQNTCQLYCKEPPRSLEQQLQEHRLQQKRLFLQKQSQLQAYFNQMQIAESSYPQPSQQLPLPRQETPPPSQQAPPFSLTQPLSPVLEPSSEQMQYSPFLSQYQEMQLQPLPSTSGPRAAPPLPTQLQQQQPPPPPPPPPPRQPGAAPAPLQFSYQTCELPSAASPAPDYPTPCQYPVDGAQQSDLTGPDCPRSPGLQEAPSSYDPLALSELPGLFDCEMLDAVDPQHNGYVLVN
Chain of YES (P07947 whole entry): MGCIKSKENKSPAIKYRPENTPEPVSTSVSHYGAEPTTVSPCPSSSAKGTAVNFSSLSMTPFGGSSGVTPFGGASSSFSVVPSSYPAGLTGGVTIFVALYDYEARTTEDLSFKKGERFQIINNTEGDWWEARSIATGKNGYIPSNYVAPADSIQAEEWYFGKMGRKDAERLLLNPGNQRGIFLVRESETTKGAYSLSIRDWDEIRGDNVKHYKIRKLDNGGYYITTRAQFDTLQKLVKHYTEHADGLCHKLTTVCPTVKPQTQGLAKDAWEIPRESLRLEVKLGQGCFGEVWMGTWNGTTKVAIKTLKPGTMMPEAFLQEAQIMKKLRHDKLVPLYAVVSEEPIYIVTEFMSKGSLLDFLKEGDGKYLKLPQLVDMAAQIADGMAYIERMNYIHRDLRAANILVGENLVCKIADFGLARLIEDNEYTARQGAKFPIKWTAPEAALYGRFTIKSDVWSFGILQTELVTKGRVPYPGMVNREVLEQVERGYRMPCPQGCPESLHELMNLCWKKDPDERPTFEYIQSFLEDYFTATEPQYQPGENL
Chain of FAK (Q05397 whole entry): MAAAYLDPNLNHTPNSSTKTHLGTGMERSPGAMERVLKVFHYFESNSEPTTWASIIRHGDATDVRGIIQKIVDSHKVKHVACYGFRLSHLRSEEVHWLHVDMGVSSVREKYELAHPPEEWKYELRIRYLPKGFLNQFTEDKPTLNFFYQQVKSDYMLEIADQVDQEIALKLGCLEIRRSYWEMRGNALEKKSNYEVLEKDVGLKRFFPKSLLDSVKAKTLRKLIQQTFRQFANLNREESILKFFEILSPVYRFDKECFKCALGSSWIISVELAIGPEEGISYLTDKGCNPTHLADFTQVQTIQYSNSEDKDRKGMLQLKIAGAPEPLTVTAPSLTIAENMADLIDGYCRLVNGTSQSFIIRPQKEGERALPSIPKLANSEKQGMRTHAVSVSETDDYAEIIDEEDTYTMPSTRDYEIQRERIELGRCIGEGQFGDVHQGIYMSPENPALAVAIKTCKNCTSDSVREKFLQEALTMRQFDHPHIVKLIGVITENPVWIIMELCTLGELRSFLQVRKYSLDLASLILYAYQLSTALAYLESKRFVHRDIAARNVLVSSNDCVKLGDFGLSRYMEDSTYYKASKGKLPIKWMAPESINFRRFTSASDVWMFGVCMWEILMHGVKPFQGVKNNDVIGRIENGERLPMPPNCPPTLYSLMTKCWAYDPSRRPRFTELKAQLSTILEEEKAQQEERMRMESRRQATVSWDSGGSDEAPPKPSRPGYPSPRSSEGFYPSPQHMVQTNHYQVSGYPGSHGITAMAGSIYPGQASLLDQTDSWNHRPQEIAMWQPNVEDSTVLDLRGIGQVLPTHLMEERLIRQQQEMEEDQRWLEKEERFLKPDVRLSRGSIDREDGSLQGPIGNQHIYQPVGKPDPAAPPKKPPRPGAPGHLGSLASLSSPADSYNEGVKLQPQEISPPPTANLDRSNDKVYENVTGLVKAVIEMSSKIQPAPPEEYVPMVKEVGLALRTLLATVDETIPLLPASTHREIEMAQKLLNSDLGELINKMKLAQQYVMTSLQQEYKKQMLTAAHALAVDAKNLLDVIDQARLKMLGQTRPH
Chain of LRRK2(G2019S) (Q5S007 970-2527 G2019S limits assumed): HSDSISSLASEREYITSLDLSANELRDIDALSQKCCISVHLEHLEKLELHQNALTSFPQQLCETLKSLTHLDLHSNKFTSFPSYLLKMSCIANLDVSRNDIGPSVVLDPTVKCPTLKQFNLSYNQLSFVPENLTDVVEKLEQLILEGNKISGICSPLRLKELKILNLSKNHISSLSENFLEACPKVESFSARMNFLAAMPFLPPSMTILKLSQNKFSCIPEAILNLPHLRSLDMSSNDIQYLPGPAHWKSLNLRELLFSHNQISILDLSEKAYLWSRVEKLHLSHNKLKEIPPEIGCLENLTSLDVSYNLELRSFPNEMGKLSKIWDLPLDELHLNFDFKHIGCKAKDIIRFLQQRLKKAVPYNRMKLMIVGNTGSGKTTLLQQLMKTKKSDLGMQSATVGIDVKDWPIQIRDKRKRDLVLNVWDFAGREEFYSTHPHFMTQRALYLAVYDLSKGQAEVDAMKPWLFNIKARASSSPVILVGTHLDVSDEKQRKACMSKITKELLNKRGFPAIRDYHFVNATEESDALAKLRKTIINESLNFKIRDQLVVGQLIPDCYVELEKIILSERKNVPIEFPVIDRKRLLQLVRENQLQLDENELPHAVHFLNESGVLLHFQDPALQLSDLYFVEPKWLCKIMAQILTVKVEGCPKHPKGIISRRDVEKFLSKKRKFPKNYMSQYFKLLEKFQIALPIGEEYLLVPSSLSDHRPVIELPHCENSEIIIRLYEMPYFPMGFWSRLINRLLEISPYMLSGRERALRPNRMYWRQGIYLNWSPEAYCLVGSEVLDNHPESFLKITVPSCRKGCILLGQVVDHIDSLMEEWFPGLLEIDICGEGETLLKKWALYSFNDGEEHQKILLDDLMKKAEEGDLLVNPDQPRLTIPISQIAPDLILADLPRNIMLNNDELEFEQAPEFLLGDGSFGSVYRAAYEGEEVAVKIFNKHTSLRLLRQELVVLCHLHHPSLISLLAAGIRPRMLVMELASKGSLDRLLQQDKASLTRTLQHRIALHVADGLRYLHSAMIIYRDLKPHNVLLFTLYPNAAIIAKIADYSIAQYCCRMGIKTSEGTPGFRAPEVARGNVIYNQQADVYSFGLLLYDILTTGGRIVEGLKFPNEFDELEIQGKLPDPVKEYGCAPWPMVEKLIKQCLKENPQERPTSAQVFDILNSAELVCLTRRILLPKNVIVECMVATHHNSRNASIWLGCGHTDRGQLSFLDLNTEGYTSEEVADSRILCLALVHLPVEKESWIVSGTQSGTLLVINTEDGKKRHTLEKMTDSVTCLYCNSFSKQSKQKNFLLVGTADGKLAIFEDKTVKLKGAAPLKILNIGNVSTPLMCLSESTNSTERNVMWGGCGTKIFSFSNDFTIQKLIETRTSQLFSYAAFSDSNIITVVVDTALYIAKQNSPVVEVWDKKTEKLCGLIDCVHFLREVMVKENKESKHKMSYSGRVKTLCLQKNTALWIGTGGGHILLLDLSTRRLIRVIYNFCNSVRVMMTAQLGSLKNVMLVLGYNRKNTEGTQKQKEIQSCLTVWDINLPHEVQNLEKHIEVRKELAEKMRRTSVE
T1 sequence (Q5S007 970-2527 limits assumed): as the sequence (Q5S007 970-2527 G2019S limits assumed) above, with S1050G counted along it

Compound	IC50 (LRRK2 WT enzyme) [nM]	remaining binding at 1 µM (FAK) [%]	remaining binding at 1 µM (PHKG2) [%]	remaining binding at 1 µM (YES) [%]	remaining binding at 1 µM (SIK2) [%]	remaining binding at 1 µM (BRSK1) [%]	IC50 (LRRK2(G2019S)) [nM]	% control (FLT3(ITD)) [%]	% control (FLT3(ITD, D835V)) [%]	% control (FLT3(ITD, F691L)) [%]
CNc1c(-c2cnn([C@H]3CCN(C(C)=O)C[C@@H]3F)c2)cnc2[nH]cc(Cl)c12 [Compound 77, 1-((3S,4S)-4-(4-(3-chloro-4-(methylamino)-1H-pyrrolo[2,3-b]pyridin-5-yl)-1H-pyrazol-1-yl)-3-fluoropiperidin-1-yl)ethan-1-one]	10 to 100	90	52	100	100	100	10 to 100			
CNc1c(-c2ccc(C(=O)N3CCC(N4CCOCC4)CC3)cc2)cnc2[nH]cc(Cl)c12 [Compound 96, (4-(3-chloro-4-(methylamino)-1H-pyrrolo[2,3-b]pyridin-5-yl)phenyl)(4-morpholinopiperidin-1-yl)methanone]	10 to 100	65	19	100	85	100	< 10	8.1	3.6	0
O=C(c1ccc(-c2cnc3[nH]cc(Cl)c3c2NC2CCCC2)cc1)N1CCC(N2CCOCC2)CC1 [Compound 101, (4-(3-chloro-4-(cyclopentylamino)-1H-pyrrolo[2,3-b]pyridin-5-yl)phenyl)(4-morpholinopiperidin-1-yl)methanone]		71	100	100	84	100		41	55	49
